Read-outs that look alike come from different tables or passages of the source.
Legend:
mice [1] = assay: Forced swimming (FS) test; type: in vivo, Male Swiss mice; settings: 5 or 10 mg/kg p.o., vs vehicle, p < 0.05
Protocol: Male Swiss mice (weighing between 25–30 g; 6–8 weeks old), provided by Central Animal House of the Federal University of Goiás, were used in all behavioural models. The experimental animals were kept in an intra-laboratory facility cage (32 × 18 × 16 cm) under controlled environmental conditions (23 ± 1 °C, 12 hr light-dark cycle) with access to food and water ad libitum. The experimental protocols (number 104/08) were approved by Ethical Committee of Federal University of Goiás in accordance to the international laws on the care and use of laboratory animals.
In the FS model, mice were randomly divided into 5 groups [control (vehicle), 3 different doses of OAD and IMI]. Mice were exposed to a modified version of FS test[48] after oral administration of vehicle, OAD (5, 10 or 20 mg/kg) or IMI 15 mg/kg. FS apparatus is a cylindrical water container (42 cm in height, 18 cm in diameter) filled with water up to 30 cm (total volume ( [drawing 1] of 7635.06 cm^3 at 24 ± 2 °C). In this model, the initial escape-directed behaviour like swimming and climbing by mouse are generally followed with a relatively passive and immobile posture. The container was cleaned with 10% ethanol solution prior to the exposure of naïve mouse. This test session (6-min duration) was videotaped and the swimming and immobility time was later scored and analyzed.

recombinant human MAO-B = target: T1, recombinant human MAO-B (Homo sapiens, UniProt P27338); assay: Kynuramine deamination inhibition assay, MAO-B; type: biochemical; settings: 50 μM kynuramine, pH 7.4, 37 °C
T1 construct: purchased BD Biosciences Bedford, MA, USA
T1 sequence (P27338 1-520): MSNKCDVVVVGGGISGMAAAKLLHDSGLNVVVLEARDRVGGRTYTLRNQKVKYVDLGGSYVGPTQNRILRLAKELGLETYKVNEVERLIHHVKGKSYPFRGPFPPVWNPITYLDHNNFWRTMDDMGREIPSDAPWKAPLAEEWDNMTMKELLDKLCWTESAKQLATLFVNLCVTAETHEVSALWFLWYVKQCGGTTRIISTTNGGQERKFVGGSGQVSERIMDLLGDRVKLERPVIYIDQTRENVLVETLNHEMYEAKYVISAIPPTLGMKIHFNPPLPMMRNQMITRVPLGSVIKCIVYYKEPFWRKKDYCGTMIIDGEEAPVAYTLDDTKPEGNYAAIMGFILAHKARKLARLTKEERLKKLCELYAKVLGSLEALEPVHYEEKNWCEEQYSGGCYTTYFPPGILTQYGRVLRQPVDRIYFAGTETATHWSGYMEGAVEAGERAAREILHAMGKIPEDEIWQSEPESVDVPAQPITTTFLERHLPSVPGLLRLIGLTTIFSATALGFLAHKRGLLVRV
Protocol: (§1) The assay was performed with the addition of inhibitor. Inhibition was calculated as percent of product formation compared to the corresponding control (enzyme-substrate reaction) without the inhibitors. The reactions were carried out in 0.1 M potassium phosphate buffer at pH 7.4. […] The compounds were dissolved in DMSO. The total reaction volume was 200 μL yielding a final DMSO concentration of 1.0% in the reaction mixture.

mice [2] = settings: mouse, in vivo; for behavioural observation: male, Swiss
Protocol: A modified method that was adopted by Malone[57] was used in the present study to evaluate general pharmacological alterations in mice following administration of D1. This test permits the observation of behavioural change, report of possible toxic effect or death occurrence in addition to variations in pharmacological responses to different route of drug administrations. Group of animals were subjected to s.c, i.p, or p.o route of D1 administrations at the doses of 2, 10, 50 or 250 mg/kg or vehicle 10 mL/kg and observed for 7 days.

recombinant human MAO-A = target: T2, recombinant human MAO-A (Homo sapiens, UniProt P21397); assay: Kynuramine deamination inhibition assay, MAO-A; type: biochemical; settings: 80 μM kynuramine, pH 7.4, 37 °C
T2 construct: purchased BD Biosciences Bedford, MA, USA
T2 sequence (P21397 1-527): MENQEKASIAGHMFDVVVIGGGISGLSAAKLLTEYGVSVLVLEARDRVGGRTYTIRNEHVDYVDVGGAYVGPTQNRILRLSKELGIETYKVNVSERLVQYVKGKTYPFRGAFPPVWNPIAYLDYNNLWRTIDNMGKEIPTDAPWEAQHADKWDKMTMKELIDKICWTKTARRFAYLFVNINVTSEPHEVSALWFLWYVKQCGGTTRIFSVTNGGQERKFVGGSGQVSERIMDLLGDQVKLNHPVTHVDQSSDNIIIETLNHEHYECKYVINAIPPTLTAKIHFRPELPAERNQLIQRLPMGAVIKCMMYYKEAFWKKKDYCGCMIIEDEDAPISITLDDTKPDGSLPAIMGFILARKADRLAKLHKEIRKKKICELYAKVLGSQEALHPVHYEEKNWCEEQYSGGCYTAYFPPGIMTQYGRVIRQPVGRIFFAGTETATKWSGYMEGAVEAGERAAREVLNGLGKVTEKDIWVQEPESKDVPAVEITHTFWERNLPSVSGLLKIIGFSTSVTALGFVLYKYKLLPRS
Protocol: as §1

mice [3] = assay: FS test after AMPT, PCPA, PRAZ or WAY pretreatment (mechanism of antidepressant-like effect of D1); type: in vivo, Male Swiss mice
Protocol: Mice were pretreated (i.p) with saline solution or AMPT 100 mg/kg (catecholamine depletor) 4 h prior to the oral administration of vehicle 10 mL/kg or D1 5 mg/kg. […] In a separate experiment, pretreatment (i.p) of mice with saline solution or PCPA 100 mg/kg (serotonin depletor) for four consecutive days prior to oral administration of vehicle or D1 5 mg/kg was used to investigate effect of serotonin depletion on antidepressant-like activity of this OAD. […] In all the four experiments, oral administration of vehicle or D1 5 mg/kg was followed by FS test (60 min interval between p.o. treatment and behavioural testing).

In the case of `C=CC(=O)O[C@H]1CC[C@]2(C)[C@H]3CC=C4[C@@H]5CC(C)(C)CC[C@]5(C(=O)O)CC[C@@]4(C)[C@]3(C)CC[C@H]2C1(C)C` [D1, Oleanolic acid acrylate], the “immobility time in the FS test” value (mice [1]) is reported as “reduction”, the “swimming time in the FS test” value (mice [1]) is reported as “significant increase” and the IC50 (recombinant human MAO-B) is reported as greater than 100 µM. The behavioural observation (mice [2]) was “Total recovery from the effects of D1 without any sign of toxicity, weight gain or death occurence”, the behavioural observation (mice [2]; 50 mg/kg, 1 hr) was “Effects after 30 min of administrations persisted” and the behavioural observation (mice [2]; 250 mg/kg, 1 hr) was “Effects after 30 min of administrations persisted”. The “behavioural observation (text)” value (mice [2]; 250 mg/kg) was “reduction in exploratory activity”, the IC50 (recombinant human MAO-A) was 48.8 ± 1.94 µM and the “effect of AMPT pretreatment on antidepressant-like effect (swimming time)” value (mice [3]; AMPT 100 mg/kg i.p. + D1 5 mg/kg p.o. versus SAL + D1, p > 0.05) was “did not attenuate”. For the same compound, the “effect of PCPA pretreatment on antidepressant-like effect (swimming time)” value (mice [3]; PCPA 100 mg/kg i.p. four days + D1 5 mg/kg p.o. versus SAL + D1, p > 0.05) was “did not block”, the “effect of PRAZ pretreatment on antidepressant-like effect (swimming time)” value (mice [3]; PRAZ 1 mg/kg i.p. + D1 5 mg/kg p.o. versus SAL + D1, p > 0.05) was “did not block” and the “swimming time in the FS test” value (mice [3]; SAL + D1 5 mg/kg p.o. versus SAL + Vehicle, p < 0.05) was “increased the swimming time”. For the same compound, the “effect of WAY pretreatment on antidepressant-like effect (swimming time)” value (mice [3]; WAY 0.3 mg/kg i.p. + D1 5 mg/kg p.o. versus SAL + D1, p < 0.05) was “significant blockade”.

Source: paper PMC4894409 (Scientific Reports, 2015)
